Our source for the IC50 and viability, T/C values is PubChem BioAssay AID1918932 (Molecular Pharmacology Branch, DTP, NCI, 2023).

Values joined by “and” are separate entries in the source; they are usually repeats but may differ in a detail not shown here. Equal entries are not always repeated. Where only a bound is given, the exact number is not on record here.

The subject of this experiment is 171881-019-R-J1-PDC complex spheroid viability. Briefly: Anticancer human tumor 171881-019-R-J1-PDC patient-derived invasive breast carcinoma cell line growth inhibition. To be noted: for viability, T/C: stronger effect = lower value. From the text:
Multicellular complex tumor spheroid response to LSD1 Inhibitor Iadademstat in combination with a variety of drugs and investigational agents in selected tumor cell lines
The current study was undertaken to assess response to LSD1 inhibitors in combination with standard-of-care drugs and investigational agents in solid tumor complex spheroid models as well as in the K-562 leukemia. Complex spheroids include a stromal component modeled by human endothelial cells (HUVEC) and fibroblasts modeled by human mesenchymal stem cells (MSCs). The concentration ranges selected for each drug and investigational agent were based upon clinically achievable concentrations if the clinical Cmax of the agent was known.
Compounds. The drugs and investigational agents used in this study are listed on Table 1. All of the agents used, including staurosporine (NSC755774) and gemcitabine (NSC613327), were obtained from the Developmental Therapeutics Program, NCI. FDA-approved anticancer drugs are available from the NCI at http://dtp.nci.nih.gov/branches/dscb/oncology_drugset_explanation.html. Drugs and investigational agents were >95% pure by proton nuclear magnetic resonance (NMR) and liquid chromatography/mass spectrometry (LC/MS). Stock solutions were prepared at 400x in DMSO, stored at -70 degrees C, and diluted in fresh medium prior to their use. The final concentration of DMSO in cell culture wells never exceeded 0.25% (v/v). The FDA-approved anticancer drug set is available from the Developmental Therapeutics Program at https://dtp.cancer.gov/organization/dscb/obtaining/available_plates.htm. All drugs and investigational agents were tested over a range starting from a high concentration at or near the clinical Cmax and decreasing in half-log increments. If the clinical Cmax for an agent had not been determined, the highest concentration tested was 10 microM.
Cell Lines. The patient-derived cancer cell (PDC) lines: 292921-168-R-J2-PDC, K24384-001-R-PDC, and 521955-158-R2-J5-PDC pancreatic carcinomas, 556581-035-R-J1 ovarian carcinoma, 324938-238-R-J1-PDC, 855422-203-R-J1-PDC and 883617-216-R-J1-PDC urothelial bladder carcinomas, 743489-274-T-PDC renal cell carcinoma, 138582-R-J1 Merkel cell tumor, K60290-347-R-J1 and K57222-313-R-J1-PDC glioblastomas, 653999-131-R-J2-PDC, LG0703-F948-PDC, and 349418-098-R-PDC non-small cell lung carcinomas, 885512-296-R-J2-PDC, 171881-019-R-J1-PDC breast carcinomas and 186277-243-T-J2-PDC and 233499-124-R-J2-PDC colon carcinomas were obtained from the NCI Patient-Derived Models Repository (PDMR, https://pdmr.cancer.gov). The established cell lines NCI/ADR-RES (RRID:CVCL_14520 and OVCAR-5 (RRID:CVCL_1628) ovarian carcinomas, 786-O (RRID:CVCL_1051) and A498 (RRID:CVCL_A498) renal cell carcinoma, NCI-H211 (ATCC, cat. CRL-5824; RRID:CVCL_1529), NCI-H196 (ATCC, cat. CRL-5823, RRID:CVCL_1509), SW 1271 (ATCC, cat. CRL-2177, RRID:CVCL_1716) and NCI-H1876 (ATCC, cat. CRL-5902, RRID:CVCL_1503) small cell lung carcinomas, MDA-MB-231 (RRID:CVCL_0062) and MDA-MB-468 (RRID:CVCL_0419)breast carcinomas (10-12). Pooled donor human umbilical vein endothelial cells (HUVEC, Lonza, cat. CC-2519) and human mesenchymal stem cells (hMSC, Lonza, cat. PT-2501) were purchased from Lonza (Walkersville, MD).
Cell Culture. All cells were maintained in an incubator at 37 degrees C and 5% CO2 with 95% humidity. The PDC lines were cultured according to standard operating procedures established by the NCI PDMR (https://pdmr.cancer.gov). Briefly all PDCs were thawed and cultured in Matrigel-coated flasks prepared with a working solution of 1X Ham's F-12 nutrient mix, without supplementation (Invitrogen, Waltham, MA, cat. 11765054), 100 U/mL penicillin-streptomycin (Invitrogen, cat. 15140122), and 2.5% Matrigel (Corning Inc., Corning, NY, cat. 354248) for the first three passages. […]

The mark [1] stands for this setting: curve of first compound, second compound 0.1 µM.
Setting [2] is: curve of first compound, second compound 0.316 µM.
[3] abbreviates: curve of first compound, second compound 1 µM.
The mark [4] stands for this setting: curve of first compound, second compound 3.16 µM.
Setting [5] is: curve of first compound, second compound 10 µM.
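Note: spheroids exposed to agents for 7 days after 3 days growth.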

Turning to `CC[C@@]1(O)C(=O)OCc2c1cc1n(c2=O)Cc2cc3c(CN(C)C)c(O)ccc3nc2-1` + NC1CC1c1ccc(-c2cccc(O)c2)cc1, the half-maximal inhibitory concentration (IC50) by setting is: under setting [1], 71.1 nM; under setting [2], 80.4 nM; under setting [3], 36.6 nM; under setting [4], 37.4 nM; under setting [5], 21 nM. For the same compound, the viability, T/C (second compound 0.1 µM, first compound 0.000316 µM) was 103%; the viability, T/C (second compound 0.1 µM, first compound 0.001 µM) is 104%; the viability, T/C (second compound 0.1 µM, first compound 0.00316 µM) is 84.4%; the viability, T/C (second compound 0.1 µM, first compound 0.01 µM) is 68.9%; the viability, T/C (second compound 0.1 µM, first compound 0.0316 µM) is 64.3%; the viability, T/C (second compound 0.1 µM, first compound 0.1 µM) was 44.2%. Moreover, the viability, T/C is 108% (second compound 0.316 µM, first compound 0.000316 µM); 107% (second compound 0.316 µM, first compound 0.001 µM); 87.8% (second compound 0.316 µM, first compound 0.00316 µM); 70.5% (second compound 0.316 µM, first compound 0.01 µM); 61.9% (second compound 0.316 µM, first compound 0.0316 µM); 46.4% (second compound 0.316 µM, first compound 0.1 µM). Moreover, the viability, T/C was 103% (second compound 1 µM, first compound 0.000316 µM); 105% (second compound 1 µM, first compound 0.001 µM); 90.7% (second compound 1 µM, first compound 0.00316 µM); 70.3% (second compound 1 µM, first compound 0.01 µM); 53.2% (second compound 1 µM, first compound 0.0316 µM); 39.6% (second compound 1 µM, first compound 0.1 µM). In addition, the viability, T/C by setting is: (second compound 3.16 µM, first compound 0.000316 µM) 101%; (second compound 3.16 µM, first compound 0.001 µM) 96.7%; (second compound 3.16 µM, first compound 0.00316 µM) 90.5%; (second compound 3.16 µM, first compound 0.01 µM) 66.8%; (second compound 3.16 µM, first compound 0.0316 µM) 55.9%; (second compound 3.16 µM, first compound 0.1 µM) 33.6%. For the same compound, the viability, T/C (second compound 10 µM, first compound 0.000316 µM) was 90.1%; the viability, T/C (second compound 10 µM, first compound 0.001 µM) was 85.3%; the viability, T/C (second compound 10 µM, first compound 0.00316 µM) is 78.9%; the viability, T/C (second compound 10 µM, first compound 0.01 µM) is 57.3%; the viability, T/C (second compound 10 µM, first compound 0.0316 µM) was 47%; the viability, T/C (second compound 10 µM, first compound 0.1 µM) is 37.4%.

Take `Nc1ccn(C2OC(CO)C(O)C2(F)F)c(=O)n1` (configuration not stated) + NC1CC1c1ccc(-c2cccc(O)c2)cc1: the half-maximal inhibitory concentration (IC50) is above 300 nM under setting [1]; above 300 nM under setting [2]; above 300 nM under setting [3]; above 300 nM under setting [4]; above 300 nM under setting [5]. For the same compound, the viability, T/C (second compound 0.1 µM, first compound 0.000949 µM) is 65.1%; the viability, T/C (second compound 0.1 µM, first compound 0.003 µM) is 61.8%; the viability, T/C (second compound 0.1 µM, first compound 0.00949 µM) was 57.8%; the viability, T/C (second compound 0.1 µM, first compound 0.03 µM) was 61.2%; the viability, T/C (second compound 0.1 µM, first compound 0.0949 µM) was 65%; the viability, T/C (second compound 0.1 µM, first compound 0.3 µM) was 64.1%. Besides, the viability, T/C is 70.9% (second compound 0.316 µM, first compound 0.000949 µM); 63.8% (second compound 0.316 µM, first compound 0.003 µM); 59.7% (second compound 0.316 µM, first compound 0.00949 µM); 60.9% (second compound 0.316 µM, first compound 0.03 µM); 66.6% (second compound 0.316 µM, first compound 0.0949 µM); 64.1% (second compound 0.316 µM, first compound 0.3 µM). Besides, the viability, T/C is 76.6% (second compound 1 µM, first compound 0.000949 µM); 62.6% (second compound 1 µM, first compound 0.003 µM); 59.5% (second compound 1 µM, first compound 0.00949 µM); 62.2% (second compound 1 µM, first compound 0.03 µM); 62% (second compound 1 µM, first compound 0.0949 µM); 63.8% (second compound 1 µM, first compound 0.3 µM). Besides, the viability, T/C is 74.8% (second compound 3.16 µM, first compound 0.000949 µM); 58.3% (second compound 3.16 µM, first compound 0.003 µM); 57.8% (second compound 3.16 µM, first compound 0.00949 µM); 56.6% (second compound 3.16 µM, first compound 0.03 µM); 60.2% (second compound 3.16 µM, first compound 0.0949 µM); 63.2% (second compound 3.16 µM, first compound 0.3 µM). Further, the viability, T/C reads like this: (second compound 10 µM, first compound 0.000949 µM) 65.7%; (second compound 10 µM, first compound 0.003 µM) 61.2%; (second compound 10 µM, first compound 0.00949 µM) 52.4%; (second compound 10 µM, first compound 0.03 µM) 55.6%; (second compound 10 µM, first compound 0.0949 µM) 59.1%; (second compound 10 µM, first compound 0.3 µM) 56%.

Regarding `NC1CCC(NC2CC2c2ccccc2)CC1` (configuration not stated), where the note is “compound 0.316 µM”, the viability, T/C is 79.8% and 83.8% and 81.9%. Further, the IC50 (compound alone, run of 02/15/2022) was above 10000 nM.
